The source made the active and inactive calls.
Columns and labels:
[1] = target: T1, Apoptotic protease-activating factor 1 (Homo sapiens, UniProt O14727); assay: SAR analysis of small molecule Activators of Apaf-1 in a Fluorescent assay.; format: functional; conditions: read-out: EC50_Mean;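 note: caspase-3 cleavage of fluorogenic Rh110 DEVD substrate downstream of apoptosome activation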
T1 sequence (O14727 whole entry): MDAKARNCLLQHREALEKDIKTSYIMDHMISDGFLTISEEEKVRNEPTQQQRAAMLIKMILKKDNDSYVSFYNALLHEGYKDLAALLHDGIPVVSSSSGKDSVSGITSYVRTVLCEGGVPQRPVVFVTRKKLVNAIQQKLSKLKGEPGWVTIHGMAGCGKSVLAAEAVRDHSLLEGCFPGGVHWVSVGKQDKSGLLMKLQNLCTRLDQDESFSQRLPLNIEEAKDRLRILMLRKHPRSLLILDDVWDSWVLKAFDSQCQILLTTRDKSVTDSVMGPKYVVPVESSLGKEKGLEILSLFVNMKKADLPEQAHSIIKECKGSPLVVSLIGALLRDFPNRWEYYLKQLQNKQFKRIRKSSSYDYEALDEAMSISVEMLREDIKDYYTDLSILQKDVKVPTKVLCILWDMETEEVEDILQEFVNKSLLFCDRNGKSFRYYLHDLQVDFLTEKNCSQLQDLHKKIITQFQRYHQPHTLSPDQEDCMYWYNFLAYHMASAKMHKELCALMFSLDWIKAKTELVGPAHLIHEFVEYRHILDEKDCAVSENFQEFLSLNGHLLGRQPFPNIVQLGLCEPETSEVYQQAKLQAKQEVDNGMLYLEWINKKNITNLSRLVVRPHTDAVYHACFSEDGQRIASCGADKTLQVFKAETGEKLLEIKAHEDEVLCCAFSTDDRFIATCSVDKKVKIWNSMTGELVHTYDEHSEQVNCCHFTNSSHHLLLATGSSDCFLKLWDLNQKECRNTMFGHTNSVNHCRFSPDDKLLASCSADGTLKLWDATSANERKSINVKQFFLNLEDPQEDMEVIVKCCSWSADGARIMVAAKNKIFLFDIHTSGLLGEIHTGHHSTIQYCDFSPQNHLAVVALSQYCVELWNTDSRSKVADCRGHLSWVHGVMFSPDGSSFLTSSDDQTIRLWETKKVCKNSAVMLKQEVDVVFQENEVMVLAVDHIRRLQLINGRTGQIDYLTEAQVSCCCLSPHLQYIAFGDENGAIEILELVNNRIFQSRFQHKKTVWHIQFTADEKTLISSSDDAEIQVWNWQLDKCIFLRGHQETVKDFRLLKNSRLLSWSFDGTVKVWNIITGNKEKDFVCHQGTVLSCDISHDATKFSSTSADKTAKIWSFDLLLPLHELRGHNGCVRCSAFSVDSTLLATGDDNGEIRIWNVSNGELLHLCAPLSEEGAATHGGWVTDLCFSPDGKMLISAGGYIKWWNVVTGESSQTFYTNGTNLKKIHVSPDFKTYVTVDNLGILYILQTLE

[2] = target: T2, Orexin/Hypocretin receptor type 1 (Homo sapiens, UniProt O43613); assay: (§1) Fluorescence-based cell-based high throughput dose response assay for antagonists of the orexin 1 receptor (OX1R; HCRTR1). [Related pubchem assays (depositor defined):AID434989, AID435008, AID463079, AID485270, AID492963, AID492964, AID492965, AID493232, AID504717, AID504718]; format: functional
T2 sequence (O43613 whole entry): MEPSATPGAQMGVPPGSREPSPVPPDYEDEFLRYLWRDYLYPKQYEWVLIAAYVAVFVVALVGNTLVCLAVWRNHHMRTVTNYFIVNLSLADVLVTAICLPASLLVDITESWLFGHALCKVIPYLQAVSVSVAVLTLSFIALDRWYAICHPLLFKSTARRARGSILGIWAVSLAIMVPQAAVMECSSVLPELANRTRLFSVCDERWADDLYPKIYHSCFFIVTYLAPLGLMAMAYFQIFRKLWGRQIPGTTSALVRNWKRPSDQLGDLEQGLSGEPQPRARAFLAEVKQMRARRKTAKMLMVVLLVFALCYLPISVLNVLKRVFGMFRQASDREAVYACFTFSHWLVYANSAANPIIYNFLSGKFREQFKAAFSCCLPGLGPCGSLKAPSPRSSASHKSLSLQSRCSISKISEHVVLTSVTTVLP

[3] = (§2) Counterscreen for antagonists of the orexin 1 receptor (OX1R; HCRTR1): Fluorescence-based cell-based high throughput dose response assay to identify antagonists of the parental CHO cell line. [Related pubchem assays (depositor defined):AID434989, AID435008, AID463079, AID485270, AID492963, AID492964, AID492965, AID493232, AID504699, AID504701]; format: functional
Orexin receptor type 2 [4] = target: T3, Orexin receptor type 2 (Homo sapiens, UniProt O43614); assay: Counterscreen assay for antagonists of the orexin 1 receptor (OX1R; HCRTR1): Homogeneous Time Resolved Fluorescence (HTRF)-based cell-based dose response assay for antagonists of the orexin 2 receptor (OX2R; HCRTR2), run by assay provider.; format: functional
T3 sequence (O43614 whole entry): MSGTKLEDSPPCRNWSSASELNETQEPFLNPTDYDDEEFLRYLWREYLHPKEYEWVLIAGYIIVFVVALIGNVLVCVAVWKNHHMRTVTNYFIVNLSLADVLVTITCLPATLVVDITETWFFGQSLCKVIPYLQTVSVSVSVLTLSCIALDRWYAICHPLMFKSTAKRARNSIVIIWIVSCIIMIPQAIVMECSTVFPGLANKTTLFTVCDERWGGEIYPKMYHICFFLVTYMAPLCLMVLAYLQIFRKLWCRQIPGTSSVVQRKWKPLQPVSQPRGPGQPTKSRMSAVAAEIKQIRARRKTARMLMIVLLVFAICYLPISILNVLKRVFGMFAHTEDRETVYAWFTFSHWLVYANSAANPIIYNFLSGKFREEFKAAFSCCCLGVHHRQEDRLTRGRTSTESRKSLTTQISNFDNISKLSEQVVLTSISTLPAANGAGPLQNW

[5] = target: T2, Orexin/Hypocretin receptor type 1; assay: as §1, with “Homogeneous Time Resolved Fluorescence (HTRF)-based” for “Fluorescence-based”; format: functional
CHO-K1 = assay: as §2, with “Homogeneous time resolved fluorescence (HTRF)-based” for “Fluorescence-based”, “cell-based” for “cell-based high throughput”, “CHO-K1” for “CHO”; format: functional; conditions: Cricetulus griseus;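 note: potency for inhibition of ATP-stimulated IP1 production as antagonists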
Orexin receptor type 2 [6] = target: T3, Orexin receptor type 2; assay: Counterscreen assay for antagonists of the orexin 1 receptor (OX1R; HCRTR1): Fluorescence-based cell-based dose response assay for antagonists of the orexin 2 receptor (OX2R; HCRTR2), run by assay provider.; format: functional
[7] = target: T4, Tyrosine-protein phosphatase non-receptor type 5 (Homo sapiens, UniProt P54829); assay: PTPN5 enzyme inhibition – biochemical, fluorescence intensity, uHTS hits, confirmation (AID 602372); format: functional; conditions: read-out: IC50_Mean
T4 sequence (P54829 whole entry): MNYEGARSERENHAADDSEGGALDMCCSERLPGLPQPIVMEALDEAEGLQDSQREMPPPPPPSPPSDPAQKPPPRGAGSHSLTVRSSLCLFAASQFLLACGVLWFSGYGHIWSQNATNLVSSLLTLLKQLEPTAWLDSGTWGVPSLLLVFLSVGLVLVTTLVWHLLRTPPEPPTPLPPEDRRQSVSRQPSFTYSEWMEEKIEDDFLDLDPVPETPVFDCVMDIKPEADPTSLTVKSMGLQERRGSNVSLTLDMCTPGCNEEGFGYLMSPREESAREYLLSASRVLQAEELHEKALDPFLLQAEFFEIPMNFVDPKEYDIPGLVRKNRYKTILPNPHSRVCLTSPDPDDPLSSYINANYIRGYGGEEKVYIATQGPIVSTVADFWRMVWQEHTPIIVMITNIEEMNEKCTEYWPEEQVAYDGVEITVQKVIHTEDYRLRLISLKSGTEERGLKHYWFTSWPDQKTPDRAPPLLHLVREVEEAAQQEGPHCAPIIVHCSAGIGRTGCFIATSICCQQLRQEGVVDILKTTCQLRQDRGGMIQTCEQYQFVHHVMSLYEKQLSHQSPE

[8] = target: T5, Tyrosine-protein phosphatase non-receptor type 11 (Homo sapiens, UniProt Q06124); assay: PTPN11 enzyme inhibitors – biochemical, selectivity assay for STEP inhibitor project, dose response (AID 602367); format: functional; conditions: read-out: IC50_Mean
T5 sequence (Q06124 whole entry): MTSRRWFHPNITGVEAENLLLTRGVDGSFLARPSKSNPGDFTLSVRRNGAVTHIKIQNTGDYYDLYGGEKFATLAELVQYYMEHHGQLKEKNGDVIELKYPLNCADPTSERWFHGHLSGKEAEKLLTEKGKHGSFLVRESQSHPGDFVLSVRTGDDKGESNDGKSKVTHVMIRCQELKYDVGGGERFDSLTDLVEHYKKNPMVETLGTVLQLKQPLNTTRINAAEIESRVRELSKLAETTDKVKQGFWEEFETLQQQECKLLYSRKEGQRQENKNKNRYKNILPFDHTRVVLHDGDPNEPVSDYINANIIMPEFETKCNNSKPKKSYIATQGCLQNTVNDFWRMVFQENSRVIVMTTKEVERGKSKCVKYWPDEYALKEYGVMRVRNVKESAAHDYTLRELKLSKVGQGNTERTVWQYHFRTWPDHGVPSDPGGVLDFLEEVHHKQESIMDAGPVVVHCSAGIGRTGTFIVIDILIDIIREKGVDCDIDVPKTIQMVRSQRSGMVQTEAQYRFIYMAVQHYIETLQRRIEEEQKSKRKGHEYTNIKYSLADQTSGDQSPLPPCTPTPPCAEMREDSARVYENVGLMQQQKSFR

[9] = target: Dual specificity protein phosphatase 3 (Homo sapiens, UniProt P51452); assay: VHR phosphatase inhibition, dose response, selectivity assay for STEP inhibitor project, biochemical (AID 602374); format: functional; conditions: read-out: IC50_Mean
Chain of Dual specificity protein phosphatase 3 (P51452 whole entry): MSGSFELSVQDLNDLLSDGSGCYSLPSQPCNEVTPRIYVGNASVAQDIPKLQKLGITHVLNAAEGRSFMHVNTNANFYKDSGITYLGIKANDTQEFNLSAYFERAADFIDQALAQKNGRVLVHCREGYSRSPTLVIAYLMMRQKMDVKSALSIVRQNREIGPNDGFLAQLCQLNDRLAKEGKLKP

[10] = alpha-synuclein stem-loop luciferase translation blockers – H4 neuroglioma cells, luminescence, confirmation (AID 1988); format: functional, cell-based
[11] = Luminescence Cell-Based Dose Response HTS to Identify Inhibitors of 5'UTR Stem-Loop Driven Prion Protein mRNA Translation in H4 Neuroglioblastoma Cells. [Related pubchem assays: 1827 (Project Summary), 1813 (Primary HTS)]; format: functional
[12] = target: T6, Mitochondrial peptide methionine sulfoxide reductase (Bos taurus, UniProt P54149); format: functional;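 note: absorbance read-out, biochemical high-throughput dose-response screen for MsrA inhibitors, confirmatory; recombinant bovine MsrA coupled to E. coli TrxB with NADPH and selenocystamine; potency is for inhibitors of MsrA activity on DMSO substrate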
T6 sequence (P54149 whole entry): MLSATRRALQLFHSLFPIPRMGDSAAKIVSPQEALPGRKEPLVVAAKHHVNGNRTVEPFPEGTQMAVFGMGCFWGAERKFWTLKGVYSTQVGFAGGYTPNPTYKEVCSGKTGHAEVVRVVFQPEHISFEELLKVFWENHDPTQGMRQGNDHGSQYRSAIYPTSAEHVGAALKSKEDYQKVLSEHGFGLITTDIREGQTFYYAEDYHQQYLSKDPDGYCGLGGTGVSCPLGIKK

[13] = luciferase reporter signal suppression in cells – H4 neuroglioma cells, luminescence, dose response (AID 1990); format: functional, cell-based
Cytochrome P450 1A2 = target: T7, Cytochrome P450 1A2 (Homo sapiens, UniProt P05177);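 note: PubChem cytochrome P450 panel assay, CYP1A2 panel member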
T7 sequence (P05177 whole entry): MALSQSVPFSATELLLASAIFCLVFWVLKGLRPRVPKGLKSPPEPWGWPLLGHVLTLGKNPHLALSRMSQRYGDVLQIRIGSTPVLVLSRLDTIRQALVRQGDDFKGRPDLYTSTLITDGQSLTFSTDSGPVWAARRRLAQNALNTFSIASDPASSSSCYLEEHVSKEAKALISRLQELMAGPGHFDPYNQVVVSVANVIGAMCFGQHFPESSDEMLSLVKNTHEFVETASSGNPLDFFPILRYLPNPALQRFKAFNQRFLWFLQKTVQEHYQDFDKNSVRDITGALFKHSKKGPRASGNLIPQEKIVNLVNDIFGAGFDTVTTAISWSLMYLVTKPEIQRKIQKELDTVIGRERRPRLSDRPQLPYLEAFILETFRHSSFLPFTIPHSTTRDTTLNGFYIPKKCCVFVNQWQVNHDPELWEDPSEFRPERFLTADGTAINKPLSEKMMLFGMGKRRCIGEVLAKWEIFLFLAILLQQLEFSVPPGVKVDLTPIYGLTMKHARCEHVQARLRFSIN

Row | SMILES | IC50 [2] | IC50 [3] | IC50 (Orexin receptor type 2 [4]) | IC50 [5] | IC50 (CHO-K1) | IC50 (Orexin receptor type 2 [6]) | also measured
1 | CC(Cc1ccccc1)C(=O)O (stereo unspecified) |  |  |  |  |  |  | EC50 [1]: > 100 µM (inactive)
2 | CSc1cccc(NC(=O)C2CCCN(S(=O)(=O)c3ccc(F)cc3)C2)c1 (stereo unspecified) | 10.4 µM (inactive) | > 49.8 µM (inactive) | 14.2 µM (inactive) | 1.59 µM (active) | > 66.2 µM (inactive) | 8.4 µM (active) | 
3 | Cc1csc2c(=O)sc(NC(=O)c3ccco3)nc12 |  |  |  |  |  |  | EC50 [1]: > 100 µM (inactive)
4 | COc1ccc(NC(=S)N2CCC(N(C)CC3CCCO3)CC2)cc1Cl (stereo unspecified) |  |  |  |  |  |  | IC50 [7]: 27.2 µM (inactive); IC50 [8]: 3.65 µM (active); IC50 [9]: 1.37 µM (active)
5 | C=CCn1c(SCC(=O)Nc2cc3oc4ccccc4c3cc2OC)nnc1-c1cnccn1 | 3.14 µM (active) | > 49.7 µM (inactive) | > 50 µM (inactive) | 0.339 µM (active) | > 66.2 µM (inactive) | 10.4 µM (inactive) | 
6 | O=[N+]([O-])c1c(Nc2ccccc2O)cc(N2CCOCC2)c2nonc12 |  |  |  |  |  |  | EC50 [10]: 111 µM (active); EC50 [11]: 30.5 µM (active); IC50 [12]: 67.7 µM (inactive); EC50 [13]: 25.1 µM (active)
7 | Cc1cccc(NC(=O)NNC(=O)c2cc(-c3ccccc3Cl)nc3ccccc23)c1 | 13.5 µM (inactive) | 48 µM (inactive) | 27.1 µM (inactive) | 0.815 µM (active) | > 66.3 µM (inactive) | 16.4 µM (inactive) | AC50 (Cytochrome P450 1A2): 15.8 µM (inconclusive)
8 | Cn1cc(CC(=O)Nc2cccc(C#N)c2)c2ccccc21 |  |  |  |  |  |  | IC50 [7]: > 80 µM (inactive); IC50 [8]: > 80 µM (inactive); IC50 [9]: 51.9 µM (inactive)
